Laboratory results reported in patent publication US4281121A, “1,3,4-Thiadiazole-2-carboxylic acid derivatives, process for making the same and fungicidal and nematocidal compositions containing same” (Schering Aktiengesellschaft, priority 1978, dated 1981).
Where two headings read alike, the source gives them in different places.

What was measured:
[1] = test system: Plasmopara viticola; assay: Prophylactic leaf treatment of grapevines in the hothouse against Plasmopara viticola; assay type: in vivo
Description: Effects of prophylactic leaf treatment of grapevines in the hothouse against Plasmopara viticola
Young grapevine plants having from 5 to 8 leaves were sprayed dripping wet with the concentrations of active agents stated in the table below. After drying of the spray deposit the leaves were sprayed with an aqueous suspension of sporangia of the fungus (about 20,000 per ml); the spraying was applied to the bottom side of the leaves. The plants were then immediately incubated in a hothouse at a temperature of 22° to 24° C. and at maximum water saturation in the atmosphere. Beginning with the second day the humidity of the air was reduced for 3 to 4 days to normal level (30 to 70% saturation) and was then maintained for another day on the level of full saturation. Subsequently, the percentage portion of the fungus infested surface of each leaf was noted and the average per treatment was calculated in order to determine the fungicidal activity. This was done on the basis of the following formula: [formula]
The active compounds were applied in the form of a 20% concentration spray powder.

[2] = test system: Helminthosporium gram; conditions: about 5 weeks
Description: Treatment of barley seeds infested with Helminthosporium gram
After emergence, the plants were subjected to illumination for 12 hours per day. After about 5 weeks the infested plants were counted and the total number of plants for each test were also counted. The active agents tested were used as pulverulent compositions.

[3] = test system: Pythium ultimum; assay: Threshold concentration test for use of the compounds against Pythium ultimum (infested soil, garden peas); assay type: in vivo; parameters: key to root evaluation (1-4): 4: white roots without fungous necrosis; 3: white roots, minor fungous necrosis; 2: brown roots, already more pronounced fungous necrosis; 1: heavy fungous necrosis, roots rotted; conditions: for root evaluation (1-4): 3 weeks; for number of sound peas: 20 grains per dish, 3 weeks at 20-24° C.
Description: Threshold concentration test for use of the compounds against Pythium ultimum
A 20% concentration of certain pulverulent active agents as listed below were mixed in uniform manner into a soil which had been heavily infested by Pythium ultimum. The thus treated soil was then placed into clay dishes of a capacity of 0.5 l earth. Without any intermediate time lapse 20 grain of garden peas (Pisum sativum L. convar. medullare Alef.) of the type "Wunder von Kelvedon" were then seeded into each of the clay dishes. After a cultivation period of three weeks at 20° to 24° C. in a hothouse the number of sound peas was determined and a root evaluation was carried out. The active agents amounts and results appear from the following table.
(§1) The root evaluation was carried out on a scale from 1 to 4 as follows: […]

[4] = test system: Tilletia caries; assay: Treatment of oat seeds infested with Tilletia caries (spore germination); assay type: in vivo
[5] = test system: Piricularia oryzae; assay type: in vivo; conditions: 5 days
[6] = test system: Venturia inaequalis; assay: Prophylactic leaf treatment of apples in open field test against Venturia inaequalis; assay type: in vivo; conditions: 3 weeks
[7] = test system: Helminthosporium gramineum; assay: Seed treatment in open field tests for infestation by Helminthosporium gramineum (barley); assay type: in vivo
Description: Seed treatment in open field tests for infestation by Helminthosporium gramineum
The active agents were used in the form of pulverulent compositions. After about 8 months in case of winter barley and after about 3 months in case of summer barley the infested plants were counted and the activity was calculated by the formula [formula]

[8] = test system: Fusarium avenaceum; assay: Threshold concentration test in case of Fusarium avenaceum (infested soil, garden peas); assay type: in vivo; conditions: for number of sound peas: 20 grains per dish, 18 days at 20-24° C.; for root evaluation (1-4): 18 days
Description: Threshold concentration test in case of Fusarium avenaceum
A 20% pulverulent active agent of the type further identified in the table below was mixed in uniform manner with a soil which had been heavily infested with Fusarium avenaceum. The thus treated soil was then placed into clay dishes of a capacity of 0.5 l of earth. Each dish was seeded without any intervening time with 20 grains of garden peas (Pisum sativum L. convar. medullare Alef.) of the type "Wunder von Kelvedon". After a cultivation time of 18 days at 20° to 24° C. in a hot house the number of sound peas was determined and a root evaluation was carried out. The active agents employed, the amounts and results appear from the following table.
as §1

[9] = concentration of active agent 0.005 (unit not given)
[10] = concentration of active agent 0.025 (unit not given)
[11] = concentration of active agent 0.1 (percentages)
[12] = concentration of active agent 0.005 (in gram)
[13] = concentration of active agent 0.025 (in gram)
[14] = summer barley, 50 g active agent/100 kg barley, about 3 months
[15] = concentration of active agent 0.001 (unit not given)

Row | SMILES | % activity [1, 9] | % activity [1, 10] | % activity ([2]; 50 g active agent per 100 kg) | root evaluation (1-4) ([3]; 20 mg/l soil) | number of sound peas ([3]; 20 mg/l soil) | root evaluation (1-4) ([3]; 40 mg/l soil) | number of sound peas ([3]; 40 mg/l soil) | root evaluation (1-4) ([3]; 80 mg/l soil) | number of sound peas ([3]; 80 mg/l soil) | % activity ([4]; 20 g active agent per 100 kg) | % activity ([4]; 50 g active agent per 100 kg) | % activity [5, 11] | % activity ([4]; 10 g active agent per 100 kg) | further results
1 | CCCS(=O)(=O)c1nnc(C(=O)N(C)C)s1 [5-propylsulfonyl-1,3,4-thiadiazole-2-carboxylic acid-dimethylamide] | 75% | 90% | 93% | 2 | 17 | 4 | 20 | 4 | 19 | 100% | 100% | 93% | – | –
2 | CCCNC(=O)c1nnc([S+](C)[O-])s1 (stereo not drawn) [5-methylsulfinyl-1,3,4-thiadiazole-2-carboxylic acid-propylamide] | 75% | 99% | 100% | 4 | 14 | 4 | 15 | 4 | 15 | 100% | 100% | – | 99% | % activity [6, 12]: 62%; % activity [6, 13]: 99.7%; % activity [7, 14]: 97%; % activity ([2]; 10 g active agent per 100 kg): 75%; % activity ([2]; 20 g active agent per 100 kg): 98%
3 | CC(C)CS(=O)(=O)c1nnc(C#N)s1 [5-isobutylsulfonyl-1,3,4-thiadiazole-2-carbonitrile] | 87% | 99% | – | – | – | – | – | – | – | 93% | 100% | 100% | – | % activity [1, 15]: 79%; number of sound peas ([8]; 25 mg/l soil): 19; root evaluation (1-4) ([8]; 25 mg/l soil): 4; number of sound peas ([8]; 50 mg/l soil): 20; root evaluation (1-4) ([8]; 50 mg/l soil): 4; number of sound peas ([8]; 100 mg/l soil): 19; root evaluation (1-4) ([8]; 100 mg/l soil): 4
4 | C=CCNC(=O)c1nnc(S(=O)(=O)CCC)s1 [5-propylsulfonyl-1,3,4-thiadiazole-2-carboxylic acid-allylamide] | – | – | – | 3 | 13 | 4 | 15 | 4 | 15 | 99.7% | 100% | 93% | 99.3% | –
5 | N#CC1=C(C#N)C(=O)c2cc3ccccc3cc2C1=O [2,3-dinitrilo-1,4-anthraquinone, reference compound] | – | – | – | – | – | – | – | – | – | – | – | – | – | % activity [6, 12]: 86%; % activity [6, 13]: 94%
6 | CCCCNC(=O)c1nnc([S+](C)[O-])s1 (stereo not drawn) [5-methylsulfinyl-1,3,4-thiadiazole-2-carboxylic acid-butylamide] | – | 93% | 100% | 2 | 12 | 4 | 15 | 4 | 17 | 99.8% | 100% | – | 99% | % activity [6, 12]: 86%; % activity [6, 13]: 99%; % activity [7, 14]: 100%; % activity ([2]; 10 g active agent per 100 kg): 67%; % activity ([2]; 20 g active agent per 100 kg): 97%
7 | CN(C)C(=O)c1nnc(S(C)(=O)=O)s1 [5-methylsulfonyl-1,3,4-thiadiazole-2-carboxylic acid-dimethylamide] | – | – | 98% | 4 | 18 | 4 | 20 | 4 | 18 | – | – | 98% | – | % activity ([7]; winter barley, 50 g active agent/100 kg barley, about 8 months): 98%; % activity ([7]; winter barley, 100 g active agent/100 kg barley, about 8 months): 100%; % activity ([2]; 20 g active agent per 100 kg): 87%; % activity ([5]; concentration of active agent 0.02 (percentages)): 91%
8 | CCCNC(=O)c1nnc([S+]([O-])CCC)s1 (stereo not drawn) [5-propylsulfinyl-1,3,4-thiadiazole-2-carboxylic acid-propylamide] | – | – | 94% | – | – | – | – | – | – | 99.3% | 100% | 93% | – | –
9 | CCCS(=O)(=O)c1nnc(C(=O)NC(C)C)s1 [5-propylsulfonyl-1,3,4-thiadiazole-2-carboxylic acid-isopropylamide] | – | – | – | 1 | 9 | 4 | 20 | 4 | 18 | 99.8% | 100% | 90% | 98% | number of sound peas ([8]; 25 mg/l soil): 14; root evaluation (1-4) ([8]; 25 mg/l soil): 2; number of sound peas ([8]; 50 mg/l soil): 16; root evaluation (1-4) ([8]; 50 mg/l soil): 3; number of sound peas ([8]; 100 mg/l soil): 17; root evaluation (1-4) ([8]; 100 mg/l soil): 4
10 | C=CCNC(=O)c1nnc(S(C)(=O)=O)s1 [5-methylsulfonyl-1,3,4-thiadiazole-2-carboxylic acid-allylamide] | – | – | 100% | 4 | 19 | 4 | 18 | 4 | 18 | 100% | 100% | 94% | – | –
11 | CCCC[S+]([O-])c1nnc(C(N)=O)s1 (stereo not drawn) [5-butylsulfinyl-1,3,4-thiadiazole-2-carboxamide] | 99.8% | 100% | – | 1 | 10 | 4 | 15 | 4 | 19 | 95% | 100% | 93% | – | % activity [1, 15]: 75%
12 | CCC(C)S(=O)(=O)c1nnc(C#N)s1 (stereo not drawn) [5-sec.-butylsulfonyl-1,3,4-thiadiazole-2-carbonitrile] | – | – | – | – | – | – | – | – | – | 91% | 98% | 99.5% | 75% | number of sound peas ([8]; 25 mg/l soil): 20; root evaluation (1-4) ([8]; 25 mg/l soil): 4; number of sound peas ([8]; 50 mg/l soil): 19; root evaluation (1-4) ([8]; 50 mg/l soil): 4; number of sound peas ([8]; 100 mg/l soil): 20; root evaluation (1-4) ([8]; 100 mg/l soil): 4
13 | CCCS(=O)(=O)c1nnc(C#N)s1 [5-propylsulfonyl-1,3,4-thiadiazole-2-carbonitrile] | – | – | – | – | – | – | – | – | – | 100% | 100% | 99.5% | 99% | number of sound peas ([8]; 25 mg/l soil): 18; root evaluation (1-4) ([8]; 25 mg/l soil): 4; number of sound peas ([8]; 50 mg/l soil): 20; root evaluation (1-4) ([8]; 50 mg/l soil): 4; number of sound peas ([8]; 100 mg/l soil): 20; root evaluation (1-4) ([8]; 100 mg/l soil): 4
14 | CCC[S+]([O-])c1nnc(C(=O)NCC)s1 (stereo not drawn) [5-propylsulfinyl-1,3,4-thiadiazole-2-carboxylic acid-ethylamide] | – | – | 94% | – | – | – | – | – | – | – | – | 90% | – | –
15 | CC(C)S(=O)(=O)c1nnc(C(=O)NCC2CCCCC2)s1 [5-isopropylsulfonyl-1,3,4-thiadiazole-2-carboxylic acid-cyclohexylmethylamide] | 92% | 97% | – | – | – | – | – | – | – | 92% | 97% | 98% | – | –
